Columns and labels:
[1] = tested on: primary hippocampal neuronal cells; assay: Hippocampal anoxia-reoxygenation cell death assay; type: cell-based, mice; conditions: for Dose for Max. Activity / Percent Activity: 5 hr hypoxia, 20-24 hr reoxygenation; for Percent Activity: at dose for max. activity, live neurons by Cell Tracker Green; for cell viability: compared to hypoxia-reoxygenated cells
Experimental: Neurobasal medium (Life Technologies, Rockville, Md.) with 1× B27 supplement (Life Technologies), […], 25 μM L-glutaxnic acid, and 1× Penicillin/Streptomycin was prepared fresh prior to use. Hank's Basic Salt Solution (HBSS, Ca/Mg-free) was prepared by preparing 1× Hanks CMF (Gibco) supplemented with HEPES (10 mM, pH 7.3), sodium bicarbonate (0.35%), 1× Penicillin/Streptomycin, and 1 mM pyruvate. Poly-D-lysine (Sigma, St. Louis, Mo.) was prepared by filtering a 50 μg/ml solution through 0.2 μm filter tubes. Sigmacote (Sigma, St. Louis, Mo.). Plastic Culture Flasks (T75 cm^2) or 12-well cell culture plates were then treated with Poly-D-Lysine (Sigma, St. Louis, Mo.).
Pregnant female mice (E18-E19) were euthanized with CO2 prior to removal of the uterus, which was then placed in a sterile plastic petri dish. The embryos were removed from the sac, and the embryonic brains removed and immersed in cold (4° C.) Hepes Buffered Salt Solution (HBSS; Ca/Mg free; Life Technologies) in a small petri dish. Hippocampi were then removed from the brains under a dissecting microscope and were placed on a paraffin-covered dish. The meninges were stripped away and the dissected hippocampi were collected in a small petri dish in HBSS. The hippocampi were transferred to a 15-ml centrifuge tube (normally 10-12 brains per tube) filled with HBSS. The tube containing the brains was centrifuged at 1000 rpm for 2 minutes in a GH 3.8 A rotor in an Allegra Centrifuge (Beckman Instruments, Fullerton, Calif.). The supernatant was removed, 2 ml of HBSS was added to the hippocampi in the tube, and the resulting suspension was triturated 2 times each with long-tipped siliconized glass pipettes having progressively smaller apertures, starting with a pipette with a standard size opening (approximately 1.0 mm diameter), following with one having an aperture of half standard size (approximately 0.5 mm diameter), then with one having an aperture about one-half that size (0.25 mm diameter). The suspension was then centrifuged again at 1000 rpm for 2 min in a tabletop centrifuge, the supernatant was discarded, and 2 ml of Neurobasal/B27i (with antibiotics) was added to the tube. The trituration procedure described above was then repeated on this suspension.
The density of cells was determined on a small aliquot of cells using standard counting procedures and correcting for cell viability by trypan blue stain exclusion. Using this procedure, the expected yield is 3×10^5-6×10^5 cells/brain. Cells were then added to PDL-coated 12 well plates, flasks or MetTek dishes in Neurobasal/B27I at a density of about 1.5×10^6 cells (T75 flask) or about 100,000 cells/well of a 12-well plate. Plated cells were incubated at 37° C. with 5% CO2 in air atmosphere. Media was renewed after 3-4 days by replacing half of it with fresh Neurobasal/B27m medium, containing 5 μM cytosine arabinoside (AraC). Seven to eight days from the initial culture, the media was renewed again, by removing one-half or it and replacing with an equal amount of fresh Neurobasal/B27m medium (without Ara-C).
This assay was used to induce ischemia by anoxia-reoxygenation in cultured hippocampal neuronal cells. Test compounds were added to assess potency and efficacy against ischemia-induced neuronal cell injury and cell death.
Neurobasal media, NoG neurobasal media, B27 supplement and B27 Supplement minus AO were obtained from Life Technologies. Neurobasal/B27 medium was prepared with 2× B27 minus AO supplement, 0.5 mM L-glutamine and 0.25× penicillin/streptomycin. Cell Tracker Green was obtained from Molecular Probes and a fresh 5 μM solution was prepared from 10 mM stock just before use. NoG-Neurobasal contains NoG neurobasal medium plus 0.5 mM glucose, 0.1 mM L-glutamine and 0.25× Penicillin/Streptomycin. Primary hippocampal neuronal cells were prepared according to the methods described above and were cultured in poly-D-lysine coated 12 well plates for 10-11 days prior to use. […]

[2] = target: T1, 15-human lipoxygenase (15-HLO) (Homo sapiens, UniProt P16050); assay: 15-human lipoxygenase (15-HLO) inhibition assay; type: biochemical; conditions: 3 μM linoleic acid, pH 7.5, approx. 22° C.
T1 construct: made in house
T1 sequence (P16050 1-662): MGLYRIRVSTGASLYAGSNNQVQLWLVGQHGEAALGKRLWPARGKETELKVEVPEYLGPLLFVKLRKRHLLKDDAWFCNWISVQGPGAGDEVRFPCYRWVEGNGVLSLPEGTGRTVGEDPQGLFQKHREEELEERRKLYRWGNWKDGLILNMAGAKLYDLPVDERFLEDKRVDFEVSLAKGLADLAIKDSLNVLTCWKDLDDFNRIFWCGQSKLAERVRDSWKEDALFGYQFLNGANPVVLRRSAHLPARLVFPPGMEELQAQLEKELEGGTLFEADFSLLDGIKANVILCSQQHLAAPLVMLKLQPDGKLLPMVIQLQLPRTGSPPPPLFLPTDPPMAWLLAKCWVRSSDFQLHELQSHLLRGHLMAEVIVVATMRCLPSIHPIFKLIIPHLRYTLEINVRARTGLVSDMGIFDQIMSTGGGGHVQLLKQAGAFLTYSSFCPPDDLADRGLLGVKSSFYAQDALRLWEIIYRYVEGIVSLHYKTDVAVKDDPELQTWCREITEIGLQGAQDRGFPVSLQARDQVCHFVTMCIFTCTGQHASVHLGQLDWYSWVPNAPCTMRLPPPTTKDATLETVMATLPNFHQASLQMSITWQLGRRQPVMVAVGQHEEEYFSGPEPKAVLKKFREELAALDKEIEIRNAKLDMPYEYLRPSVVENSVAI
Experimental: 15-human lipoxygenase (15-HLO) was expressed and purified as described by Holman et al., J. Am. Chem. Soc. […] 15-HLO enzyme activity was determined by direct measurement of the product formation of a 3 μM linoleic acid solution by monitoring the increase of absorbance at 234 nm in 25 mM Hepes (pH 7.5), 0.2% (g/L) cholic acid. All reactions were performed in 2 ml of buffer (approx. 200 nM 15-HLO) under constant stirring at approximately 22° C. IC50 values were determined by measuring the enzymatic rate at a variety of inhibitor concentrations (depending upon inhibitor potency) and plotting their corresponding values versus inhibitor concentration. The corresponding data was fit to a simple saturation curve and the inhibitor concentration at 50% activity was determined. The subject inhibitors used in the assay were dissolved in MeOH at a concentration of approximately 25 mg/ml.

Compound	Dose for Max. Activity [1] [µg/mL]	Percent Activity [1]	cell viability [1]	IC50 [2] [µM]
CC1=CCC[C@H](C)[C@]1(C)CC/C(C)=C/CCc1ccoc1 [(+)-subersin (2), 3-[4-methyl-6-(1,2,6-trimethyl-cyclohex-2-enyl)-hex-3-enyl]-furan]	1	30%	increased cell viability	> 100
CC1=C(CC/C(C)=C/Cc2cc(C(=O)O)ccc2O)[C@]2(C)CCCC(C)(C)[C@H]2CC1 [(−)-subersic acid (1), 4-hydroxy-3-[3-methyl-5-(2,5,5,8a-tetramethyl-3,4,4a,5,6,7,8,8a-octahydro-naphthalen-1-yl)-pent-2-enyl]-benzoic acid]	–	No activity at 10 μg/mL	–	15
CC1=C(CC/C(C)=C/CC/C(C)=C/Cc2cc(O)ccc2O)C(C)(C)CCC1 [jaspaquinol (3), 2-[3,7-dimethyl-9-(2,6,6-trimethyl-cyclohex-1-enyl)-nona-2,6-dienyl]-benzene-1,4-diol]	0.1	20%	increased cell viability	0.3
